Legend:
Experiment in all cases: relative viability (nuclei count vs DMSO), 5 days (fraction); higher = more cells survive
Alisertib + Tozasertib = compound: COc1cc(Nc2ncc3c(n2)-c2ccc(Cl)cc2C(c2c(F)cccc2OC)=NC3)ccc1C(=O)O [Alisertib] + Cc1cc(Nc2cc(N3CCN(C)CC3)nc(Sc3ccc(NC(=O)C4CC4)cc3)n2)n[nH]1 [Tozasertib] (partner 0.1 µM)
Method in brief: (§1)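 Relative viability is defined as nuclei in treated wells over nuclei in vehicle wells. Duplicate plates were run and medians reported. Lung cancer cell lines in 1536-well plates were dosed by pin tool one day after seeding, with one drug or with a fixed anchor-drug dose plus five library-drug doses (not always all listed) in √10 steps, and nuclei were counted after 5 days.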

Alisertib + AZD7762 = compound: COc1cc(Nc2ncc3c(n2)-c2ccc(Cl)cc2C(c2c(F)cccc2OC)=NC3)ccc1C(=O)O [Alisertib] + NC(=O)Nc1cc(-c2cccc(F)c2)sc1C(=O)N[C@H]1CCCNC1 [AZD7762] (partner 0.2 µM)
Method in brief: as §1

Alisertib + Trametinib = compound: COc1cc(Nc2ncc3c(n2)-c2ccc(Cl)cc2C(c2c(F)cccc2OC)=NC3)ccc1C(=O)O [Alisertib] + CC(=O)Nc1cccc(-n2c(=O)n(C3CC3)c(=O)c3c(Nc4ccc(I)cc4F)n(C)c(=O)c(C)c32)c1 [Trametinib] (partner 0.02 µM)
Method in brief: as §1

Alisertib = compound: COc1cc(Nc2ncc3c(n2)-c2ccc(Cl)cc2C(c2c(F)cccc2OC)=NC3)ccc1C(=O)O [Alisertib]
Method in brief: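 On vehicle-anchored 1536-well plates, lung cancer cell lines held overnight at 37 °C were pinned with five library-drug doses (not always all listed) spaced by √10. With no medium change over 5 days, they were then fixed, permeabilised and Hoechst-stained in one step and imaged at 4×. MetaXpress counted nuclei, and viability is the median across plates of treated-well over vehicle-well nuclei. Acceptance needed control CV below 25% and at least one doubling.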

Cell Line	relative viability (Alisertib + Tozasertib; first compound 0.005 µM)	relative viability (Alisertib + Tozasertib; first compound 0.01581 µM)	relative viability (Alisertib + Tozasertib; first compound 0.05 µM)	relative viability (Alisertib + Tozasertib; first compound 0.1581 µM)	relative viability (Alisertib + Tozasertib; first compound 0.5 µM)	relative viability (Alisertib + AZD7762; first compound 0.005 µM)	relative viability (Alisertib + AZD7762; first compound 0.01581 µM)	relative viability (Alisertib + AZD7762; first compound 0.05 µM)	relative viability (Alisertib + AZD7762; first compound 0.1581 µM)	relative viability (Alisertib + AZD7762; first compound 0.5 µM)	relative viability (Alisertib + Trametinib; first compound 0.005 µM)	relative viability (Alisertib + Trametinib; first compound 0.01581 µM)	relative viability (Alisertib + Trametinib; first compound 0.05 µM)	relative viability (Alisertib + Trametinib; first compound 0.1581 µM)	relative viability (Alisertib + Trametinib; first compound 0.5 µM)	relative viability (Alisertib; 0.005 µM)	relative viability (Alisertib; 0.01581 µM)	relative viability (Alisertib; 0.05 µM)	relative viability (Alisertib; 0.1581 µM)	relative viability (Alisertib; 0.5 µM)
LK-2	0.167	0.184	0.164	0.197	0.185	0.321	0.382	0.205	0.153	0.14	0.746	0.677	0.522	0.25	0.183	0.962	0.853	0.497	0.297	0.202
NCI-H1993	0.572	0.542	0.536	0.524	0.512	0.85	0.629	0.391	0.324	0.364	0.493	0.513	0.442	0.404	0.455	0.906	0.92	0.621	0.468	0.516
PC-14	0.566	0.492	0.26	0.0568	0.06	0.226	0.38	0.272	0.0966	0.0539	0.757	0.56	0.385	0.234	0.0465	0.827	0.846	0.584	0.156	0.0817
NCI-H1437	0.38	0.372	0.297	0.269	0.195	1.07	1.09	0.751	0.399	0.201	0.391	0.489	0.279	0.21	0.179	0.896	0.836	0.605	0.344	0.203
NCI-H2170	0.658	0.674	0.321	0.261	0.161	0.85	0.608	0.59	0.199	0.176	0.871	0.842	0.401	0.407	0.17	0.94	0.883	0.815	0.423	0.323
NCI-H1648	0.637	0.272	0.218	0.303	0.205	–	0.654	0.62	0.314	0.223	–	0.42	0.27	0.229	0.25	0.833	0.755	0.606	0.255	0.242
LCLC-103H	0.432	0.42	0.223	0.247	0.26	0.711	0.767	0.764	0.41	0.322	0.669	0.69	0.345	0.359	0.437	0.903	1.04	0.875	0.392	0.293
NCI-H441	0.478	0.366	0.253	0.286	0.227	0.927	0.977	0.471	0.243	0.199	0.378	0.341	0.16	0.168	0.141	0.839	0.662	0.201	0.179	0.188
BEN	0.531	0.457	0.375	0.456	0.4	0.57	0.592	0.359	0.335	0.389	1.02	0.976	0.435	0.286	0.409	0.88	0.812	0.374	0.234	0.209
LC-2-ad	0.441	0.367	0.366	0.338	0.323	0.768	0.5	0.224	0.185	0.15	0.826	0.698	0.517	0.353	0.191	0.736	0.594	0.347	0.245	0.225
SW 900	0.557	0.54	0.375	0.241	0.191	0.568	0.617	0.637	0.232	0.17	0.917	0.827	0.374	0.217	0.144	0.635	0.81	0.506	0.264	0.24
NCI-H1915	0.404	0.272	0.241	0.193	0.179	0.531	0.597	0.277	0.254	0.206	0.303	0.303	0.241	0.201	0.138	0.816	0.773	0.572	0.383	0.25
NCI-H647	0.345	0.261	0.125	0.152	0.101	0.314	0.367	0.103	0.0861	0.0503	0.358	0.493	0.228	0.159	0.113	0.733	0.654	0.318	0.152	0.0801
NCI-H2126	0.798	0.637	0.405	0.293	0.288	0.936	0.965	0.883	0.466	0.288	0.563	0.57	0.348	0.281	0.238	0.938	0.941	0.699	0.361	0.314
LXF-289	0.169	0.14	0.128	0.141	0.0869	0.922	0.637	0.682	0.163	0.138	0.586	0.628	0.265	0.192	0.152	0.844	0.672	0.46	0.183	0.195
HCC-44	0.929	0.59	0.296	0.349	0.196	0.888	0.992	0.966	0.588	0.439	0.963	0.931	0.509	0.4	0.32	0.933	0.928	0.816	0.275	0.212

Cell Line	relative viability (Alisertib + Tozasertib; first compound 0.005 µM)	relative viability (Alisertib + Tozasertib; first compound 0.01581 µM)	relative viability (Alisertib + Tozasertib; first compound 0.05 µM)	relative viability (Alisertib + Tozasertib; first compound 0.1581 µM)	relative viability (Alisertib + Tozasertib; first compound 0.5 µM)	relative viability (Alisertib + AZD7762; first compound 0.005 µM)	relative viability (Alisertib + AZD7762; first compound 0.01581 µM)	relative viability (Alisertib + AZD7762; first compound 0.05 µM)	relative viability (Alisertib + AZD7762; first compound 0.1581 µM)	relative viability (Alisertib + AZD7762; first compound 0.5 µM)	relative viability (Alisertib + Trametinib; first compound 0.005 µM)	relative viability (Alisertib + Trametinib; first compound 0.01581 µM)	relative viability (Alisertib + Trametinib; first compound 0.05 µM)	relative viability (Alisertib + Trametinib; first compound 0.1581 µM)	relative viability (Alisertib + Trametinib; first compound 0.5 µM)	relative viability (Alisertib; 0.005 µM)	relative viability (Alisertib; 0.01581 µM)	relative viability (Alisertib; 0.05 µM)	relative viability (Alisertib; 0.1581 µM)	relative viability (Alisertib; 0.5 µM)
PC-3 [JPC-3]	0.893	0.814	0.548	0.551	0.387	0.649	0.778	0.705	0.403	0.317	0.669	0.649	0.591	0.526	0.493	0.974	0.976	0.932	0.48	0.398
HOP-62	0.339	0.275	0.204	0.24	0.203	0.447	0.412	0.268	0.158	0.0945	0.398	0.337	0.274	0.223	0.174	0.918	0.867	0.505	0.237	0.17
NCI-H358	0.093	0.121	0.0917	0.0959	0.079	0.424	0.433	0.183	0.175	0.165	0.123	0.138	0.0961	0.0877	0.0818	0.791	0.797	0.2	0.147	0.14
NCI-H1666	0.625	0.412	0.365	0.391	0.355	0.768	0.698	0.636	0.477	0.375	0.839	0.738	0.679	0.612	0.501	0.904	0.814	0.689	0.534	0.438
NCI-H1355	0.53	0.462	0.297	0.192	0.217	0.707	0.641	0.364	0.168	0.146	0.39	0.411	0.355	0.187	0.153	0.881	0.771	0.774	0.255	0.204
HCC-827	0.378	0.31	0.258	0.273	0.278	0.18	0.247	0.206	0.123	0.15	0.547	0.514	0.293	0.26	0.238	0.947	1.01	0.812	0.363	0.324
HARA	0.103	0.0888	0.0929	0.104	0.0887	0.28	0.567	0.339	0.217	0.0911	0.722	0.769	0.348	0.12	0.207	0.897	0.94	0.656	0.24	0.185
HCC-366	0.125	0.0689	0.0539	0.0439	0.0387	0.351	0.396	0.0718	0.0314	0.027	0.306	0.23	0.0254	0.0345	0.0398	1	0.813	0.0889	0.0461	0.054
NCI-H322M	0.394	0.491	0.506	0.453	0.509	0.435	0.565	0.47	0.393	0.395	0.456	0.495	0.403	0.472	0.381	0.874	0.894	0.812	0.501	0.493
NCI-H2347	0.517	0.549	0.415	0.401	0.273	0.741	0.671	0.585	0.387	0.37	0.281	0.273	0.286	0.271	0.237	1.01	0.906	0.862	0.703	0.428
NCI-H1975	0.695	0.65	0.336	0.212	0.124	0.658	0.618	0.521	0.33	0.192	0.303	0.33	0.195	0.241	0.169	0.85	0.828	0.565	0.317	0.207
NCI-H596	0.825	0.878	0.779	0.592	0.314	0.96	1.02	1.15	0.926	0.66	0.816	0.787	0.776	0.542	0.327	0.882	1	1.07	0.816	0.4
NCI-H522	0.543	0.565	0.489	0.517	0.439	0.818	0.843	0.785	0.406	0.411	0.779	0.777	0.728	0.551	0.445	0.817	1.02	0.696	0.515	0.452
A-427	0.211	0.166	0.174	0.186	0.135	0.602	0.362	0.206	0.196	0.212	0.596	0.57	0.244	0.241	0.262	0.798	0.681	0.333	0.231	0.19
LCLC-97TM1	0.203	0.185	0.166	0.181	0.149	0.192	0.307	0.207	0.103	0.0633	0.202	0.201	0.124	0.126	0.0987	0.931	0.791	0.496	0.137	0.121
